According to patent US20250361230A1, “LATS Inhibitors and Uses Thereof” (The USA, as Represented by the Secretary, Dept. of Heath …, priority 2022, published 2025):

Columns and labels:
[1] = target: T1, LATS1 Kinase-NanoLuc fusion in HEK-293 cells (Homo sapiens, UniProt O95835); test: NanoBRET target engagement assay in transfected HEK-293 cells, LATS1; assay type: cell-based; settings: cellular
T1 construct: host or cells: HEK-293
T1 sequence (O95835 1-1130): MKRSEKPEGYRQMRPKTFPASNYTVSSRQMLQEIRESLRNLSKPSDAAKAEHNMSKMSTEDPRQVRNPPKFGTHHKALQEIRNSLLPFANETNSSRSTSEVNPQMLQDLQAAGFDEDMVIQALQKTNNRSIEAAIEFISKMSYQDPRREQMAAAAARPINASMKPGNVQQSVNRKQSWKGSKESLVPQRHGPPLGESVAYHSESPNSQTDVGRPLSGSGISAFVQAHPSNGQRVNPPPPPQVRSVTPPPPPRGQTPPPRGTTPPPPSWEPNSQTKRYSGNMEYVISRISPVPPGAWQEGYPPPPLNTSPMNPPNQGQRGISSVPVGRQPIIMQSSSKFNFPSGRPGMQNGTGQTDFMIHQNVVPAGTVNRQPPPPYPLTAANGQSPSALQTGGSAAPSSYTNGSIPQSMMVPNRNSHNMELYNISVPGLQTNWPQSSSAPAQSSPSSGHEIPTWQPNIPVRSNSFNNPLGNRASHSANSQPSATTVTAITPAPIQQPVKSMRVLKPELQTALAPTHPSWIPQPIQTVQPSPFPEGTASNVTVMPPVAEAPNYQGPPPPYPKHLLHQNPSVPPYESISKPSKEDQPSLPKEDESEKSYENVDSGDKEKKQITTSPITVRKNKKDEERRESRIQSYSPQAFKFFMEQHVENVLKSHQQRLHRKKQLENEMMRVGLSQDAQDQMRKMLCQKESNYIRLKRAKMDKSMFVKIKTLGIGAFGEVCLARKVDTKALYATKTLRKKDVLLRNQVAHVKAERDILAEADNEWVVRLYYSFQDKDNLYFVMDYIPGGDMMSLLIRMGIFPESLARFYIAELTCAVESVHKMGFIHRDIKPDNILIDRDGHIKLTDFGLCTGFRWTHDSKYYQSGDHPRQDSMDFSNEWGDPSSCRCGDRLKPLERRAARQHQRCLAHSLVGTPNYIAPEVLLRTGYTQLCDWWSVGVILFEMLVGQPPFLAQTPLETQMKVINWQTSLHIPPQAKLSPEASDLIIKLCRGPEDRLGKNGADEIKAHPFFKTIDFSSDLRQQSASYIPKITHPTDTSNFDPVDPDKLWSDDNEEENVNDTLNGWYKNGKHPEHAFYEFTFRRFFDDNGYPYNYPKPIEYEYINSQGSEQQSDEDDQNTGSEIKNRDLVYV
Outline: (§1)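 HEK-293 cells transiently transfected with kinase-NanoLuc fusion plasmid for 22-24 h, then incubated with compound and NanoBRET tracer for 1 hour at 37° C. After substrate plus extracellular NanoLuc inhibitor addition, 460 and 600 nm emissions read; no-tracer-corrected BRET ratio used to derive IC50 values.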

[2] = target: T2, AKT Kinase-NanoLuc fusion in HEK-293 cells (Homo sapiens, UniProt P31749); test: NanoBRET target engagement assay in transfected HEK-293 cells, AKT; assay type: cell-based; settings: cellular; read-out: AKT (Cellular) IC50
T2 construct: host or cells: HEK-293
T2 sequence (P31749 whole entry, the tested form may be a part): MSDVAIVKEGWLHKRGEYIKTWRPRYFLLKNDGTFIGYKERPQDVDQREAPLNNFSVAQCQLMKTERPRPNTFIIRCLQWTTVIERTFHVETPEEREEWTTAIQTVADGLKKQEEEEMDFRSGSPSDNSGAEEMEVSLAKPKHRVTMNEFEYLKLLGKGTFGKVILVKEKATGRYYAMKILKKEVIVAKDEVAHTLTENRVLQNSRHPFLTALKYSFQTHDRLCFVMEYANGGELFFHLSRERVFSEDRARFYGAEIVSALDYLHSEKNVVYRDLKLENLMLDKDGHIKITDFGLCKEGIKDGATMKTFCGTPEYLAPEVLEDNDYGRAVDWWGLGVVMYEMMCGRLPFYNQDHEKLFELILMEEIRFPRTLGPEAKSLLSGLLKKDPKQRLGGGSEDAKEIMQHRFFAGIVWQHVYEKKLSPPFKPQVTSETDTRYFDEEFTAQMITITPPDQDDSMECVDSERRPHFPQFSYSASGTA
Outline: as §1

| Compound | IC50 [1] [nM] | IC50 [2] [nM] |
| --- | --- | --- |
| Cc1cc(-c2ccnc3[nH]cc(C#N)c23)cc(F)c1[C@@]1(O)[C@H](C)CN(C(=O)C(N)C(F)(F)F)C[C@@H]1C (stereo partly drawn) [Compound 2017, 4-(4-((3S,4s,5R)-1-(2-amino-3,3,3-trifluoropropanoyl)-4-hydroxy-3,5-dimethylpiperidin-4-yl)-3-fluoro-5-methylphenyl)-1H-pyrrolo[2,3-b]pyridine-3-carbonitrile] | < 2.5 | > 50000 |
| Cc1cc(-c2ccnc3[nH]cc(C#N)c23)cc(F)c1[C@@]1(O)[C@H](C)CN(C(=O)[C@H](CO)N(C)C)C[C@@H]1C [Compound 2023, 4-(4-((3S,4R,5R)-1-(dimethyl-L-seryl)-4-hydroxy-3,5-dimethylpiperidin-4-yl)-3-fluoro-5-methylphenyl)-1H-pyrrolo[2,3-b]pyridine-3-carbonitrile] | < 2.5 | > 50000 |
| Cc1cc(-c2ccnc3[nH]cc(C#N)c23)cc(F)c1[C@@]1(O)[C@H](C)CNC[C@@H]1C [Compound 2024, 4-(3-fluoro-4-((3S,4s,5R)-4-hydroxy-3,5-dimethylpiperidin-4-yl)-5-methylphenyl)-1H-pyrrolo[2,3-b]pyridine-3-carbonitrile] | 37.9 | > 50000 |
